Data: ChEMBL document CHEMBL4043174, “Synthesis, conformational study and antiviral activity of l-like neplanocin derivatives” (Bioorg Med Chem Lett, 2017)
Converted amounts (≈) assume the structure as drawn. The source made the active and inactive calls. No cut-off for these calls is given here.

Legend:
Norovirus = assay: Antiviral activity against Norovirus; format: functional
unidentified adenovirus = assay: Antiviral activity against Adenovirus; format: functional
Chikungunya virus = assay: Antiviral activity against Chikungunya virus; format: functional
Dengue virus [1] = assay: Antiviral activity against Dengue virus; format: functional
Enterovirus C = assay: Antiviral activity against Poliovirus; format: functional
Punta Toro virus = assay: Antiviral activity against Punta Toro virus; format: functional
Rift Valley fever virus [2] = assay: Antiviral activity against Rift Valley fever virus; format: functional
Tacaribe virus = assay: Antiviral activity against Tacaribe virus; format: functional; details: Mammarenavirus tacaribeense
Usutu virus = assay: Antiviral activity against Usutu virus; format: functional
[3] = test system: Venezuelan equine encephalitis virus; assay: Antiviral activity against Venezuelan equine encephalitis virus; format: functional
West Nile virus [4] = assay: Antiviral activity against West Nile virus; format: functional
Yellow fever virus [5] = assay: Antiviral activity against Yellow fever virus; format: functional
[6] = test system: Japanese encephalitis virus; assay: Antiviral activity against Japanese encepahalitis virus; format: functional
Zika virus = assay: Antiviral activity against Zika virus; format: functional
Measles morbillivirus = assay: Antiviral activity against measles virus; format: functional
Vaccinia virus = assay: Antiviral activity against vaccinia virus infected in PRK cells assessed as reduction in virus-induced cytopathic effect after 2 to 3 days; format: functional, cell-based; details: Orthopoxvirus vaccinia
[7] = test system: Vesicular stomatitis virus; assay: Antiviral activity against vesicular stomatitis virus infected in PRK cells assessed as reduction in virus-induced cytopathic effect after 1 to 2 days; format: functional, cell-based
Ebolavirus = assay: Antiviral activity against Ebolavirus; format: functional; details: for EC50: Orthoebolavirus
Vero = assay: (§1) Cytotoxicity against African green monkey Vero cells assessed as reduction in cell viability; format: cell-based; details: chlorocebus sabaeus, vero
Dengue virus [8] = assay: Antiviral activity against Dengue virus infected in African green monkey Vero cells; format: functional
Rift Valley fever virus [9] = assay: Antiviral activity against Rift Valley fever virus infected in African green monkey Vero cells; format: functional
[10] = test system: Venezuelan equine encephalitis virus; assay: Antiviral activity against Venezuelan equine encephalitis virus infected in African green monkey Vero cells; format: functional
West Nile virus [11] = assay: Antiviral activity against West Nile virus infected in African green monkey Vero cells; format: functional
Yellow fever virus [12] = assay: Antiviral activity against Yellow fever virus infected in African green monkey Vero cells; format: functional
[13] = test system: Japanese encephalitis virus; assay: Antiviral activity against Japanese encepahalitis virus infected in African green monkey Vero cells; format: functional
[14] = as §1; format: cell-based; details: chlorocebus sabaeus, Vero cells

| Structure (SMILES) | EC50 (Norovirus) | Activity (unidentified adenovirus) | Activity (Chikungunya virus) | Activity (Dengue virus [1]) | Activity (Enterovirus C) | Activity (Punta Toro virus) | Activity (Rift Valley fever virus [2]) | Activity (Tacaribe virus) | Activity (Usutu virus) | Activity [3] | Activity (West Nile virus [4]) | Activity (Yellow fever virus [5]) | Activity [6] | Activity (Zika virus) | Activity (Measles morbillivirus) | EC50 (Ebolavirus) | Activity (Vero) | Activity (Ebolavirus) | further results |
| --- | --- | --- | --- | --- | --- | --- | --- | --- | --- | --- | --- | --- | --- | --- | --- | --- | --- | --- | --- |
| Nc1nccc2c1ncn2[C@H]1C=C[C@H](O)[C@@H]1O (relative stereo) | 4.2 µM | inactive | inactive | inactive | inactive | inactive | inactive | inactive | inactive | inactive | inactive | inactive | inactive | inactive | inactive | 29.5 µg/mL (≈ 127 µM) | Non-Toxic |  | EC50 (Vaccinia virus): 0.7 µg/mL (≈ 3.01 µM); EC50 [7]: 0.2 µg/mL (≈ 0.861 µM) |
| Nc1ncc(Br)c2c1ncn2[C@H]1C=C[C@H](O)[C@@H]1O | 33 µM | inactive | inactive | inactive | inactive | inactive | inactive | inactive | inactive | inactive | inactive | inactive | inactive | inactive | inactive | 8.3 µg/mL (≈ 26.7 µM) |  |  | IC50 (Dengue virus [8]): 7.2 µg/mL (≈ 23.1 µM); IC50 (Rift Valley fever virus [9]): 31 µg/mL (≈ 99.6 µM); IC50 [10]: 27 µg/mL (≈ 86.8 µM); IC50 (West Nile virus [11]): 32 µg/mL (≈ 103 µM); IC50 (Yellow fever virus [12]): 32 µg/mL (≈ 103 µM); IC50 [13]: 32 µg/mL (≈ 103 µM); CC50 [14]: 27 to 32 µg/mL (≈ 86.8 to 103 µM) |
| Nc1ncc(Br)c2c1ncn2[C@@H]1[C@@H](O)[C@@H](O)[C@H]2C[C@H]21 | 3 µM | inactive | inactive | inactive | inactive | inactive | inactive | inactive | inactive | inactive | inactive | inactive | inactive | inactive | inactive |  | Non-Toxic | inactive |  |
| Nc1nccc2c1ncn2[C@@H]1[C@@H](O)[C@@H](O)[C@H]2C[C@H]21 | > 100 µM | inactive | inactive | inactive | inactive | inactive | inactive | inactive | inactive | inactive | inactive | inactive | inactive | inactive | inactive |  | Non-Toxic | inactive |  |
